# Laboratory results: US20230212170A1, “INHIBITORS OF KRAS G12C PROTEIN AND USES THEREOF” (SHANGHAI ANTENGENE CORPORATION LIMITED, priority 2020, published 2023)
# Like-named read-outs stand apart in the source and are kept apart here.
# Key:
# KRAS G12C [1] = target: T1, KRAS G12C (Homo sapiens, UniProt P01116, G12C); assay: KRAS GDP FI assay; type: biochemical; conditions: kinetic reading Ex580/Em620 for 120 min
# Source text: Assay 2: KRAS GDP FI Assay
# 1. Prepare compound dilution plate.
# 2. Transfer Inhibitor/DMSO to assay plate by Echo.
# 3. Prepare 1× assay buffer.
# 4. Prepare KRAS G12C mix & SOS1 mix & GTP mix & detection reagent mix.
# 5. Add KRAS G12C mix, SOS1 mix, GTP mix.
# 6. Add detection reagent mix to assay plate.
# Target sequence in this assay (P01116 1-188 isoform P01116-2 G12C): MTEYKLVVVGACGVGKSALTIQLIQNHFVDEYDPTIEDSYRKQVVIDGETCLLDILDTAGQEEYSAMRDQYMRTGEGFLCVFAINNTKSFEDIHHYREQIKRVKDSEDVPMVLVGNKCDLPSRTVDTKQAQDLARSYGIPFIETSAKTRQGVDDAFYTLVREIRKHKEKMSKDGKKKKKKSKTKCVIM
# [2] = Pharmacokinetics study in plasma of ICR mice, intravenous or oral administration; type: in vivo; conditions: male ICR mice
# Experimental: The purpose of this study is to determine the pharmacokinetics parameters in plasma of compounds in ICR mice following intravenous or oral administration.
# The formulations were based on sponsor's recommendation and will be prepared by the Testing Facility.
# Species and Strain: ICR Mice (Male)
# Source: Sino-British SIPPR Lab Animal Ltd, Shanghai
# Number of Animals: Ordered: 8; Needed: 6
# The test article was be administered via a single IV or PO dosing.
# IV group: Post-dose at 5 min, 15 min, 30 min, 1 h, 2 h, 4 h, 8 h and 24 h.
# PO group: Post-dose at 15 min, 30 min, 1 h, 2 h, 4 h, 6 h, 8 h and 24 h.
# 30˜40 μL/sample. Samples were be placed in tubes containing heparin sodium and stored on ice until centrifuged.
# The PK blood samples were centrifuged at approximately 6800G for 6 minutes at 2-8° C. and the resulting plasma was transferred to appropriately labeled tubes within 2 hour of blood collection/centrifugation and stored frozen at approximately −70° C.
# Method development and biological samples analysis for the test articles (Sodium heparin anticoagulant) were be performed by Testing Facility by means of LC-MS/MS. The analytical results were be confirmed using quality control samples for intra-assay variation. The accuracy of >66.7% of the quality control samples were be between 80-120% of the known value(s).
# Pharmacokinetics Analysis
# Standard set of parameters including Area Under the Curve (AUC(0-t) and AUC(0-∞)), elimination half-live (T1/2), maximum plasma concentration (Cmax) and time to reach maximum plasma concentration (Tmax) and other parameters were be calculated using Phoenix WinNonlin 7.0 (Pharsight, USA) by the Study Director.
# NCI-H358 = assay: Tumor cell anti-proliferation assay (CTG assay), NCI-H358; type: cell-based; conditions: NCI-H358, 3-days incubation, CTG, read-out: IC50 NCI-H358
# Experimental: (§1) Assay 3: Tumor Cell Anti-Proliferation Assay (CTG Assay)
# (§2) Tested tumor cell lines (MIA PaCa-2, NCI-H358, and A549) were seeded to the 96-well plate for overnight, then cells were treated with the test compound at 9 serially diluted concentrations in triplicate. After 3-days incubation with the test compound, the CTG assay was performed to evaluate the IC50. The 3 cell lines were tested in the same manner. Cisplatin were used as the positive control.
# (§3) Day −1: Cell Plating for Cell Lines
# (§4) 1. Adjust the cell concentration to the appropriated number with the medium, and for each well of a 96-well plate, add 90 μl cell suspensions (Cell concentration will be adjusted according to the data base or density optimization assay). 2. Incubate the plates for overnight in humidified incubator at […] with 5% CO2.
# (§5) Day 0: T0 Plate Reading and Compound Treatment
# (§6) 3. Add 10 μL culture medium to each well of plate A for T0 reading.
# (§7) 4. Equilibrate the plate and its content at RT for approximately 30 min.
# (§8) 5. Add 50 μL CellTiter-Glo® Reagent to each well for T0 reading.
# (§9) 6. Mix contents for 2 minutes on an orbital shaker to facilitate cell lysis.
# (§10) 7. Allow the plate to incubate at room temperature for 10 minutes to stabilize the luminescent signal. Note: Uneven luminescent signal within standard plates can be caused by temperature gradients, uneven seeding of cells or edge effects in multiwall plates.
# (§11) 8. Place a black BackSeal sticker to the bottom of each plate.
# (§12) 9. Record luminescence using an Envision Multi Label Reader.
# (§13) 10. Dilute the test compound and the positive control (Cisplatin). Add 10 μL of 10× test compound working solutions into the corresponding wells. Incubate the test plates in the humidified incubator at 37° C. with 5% Co2.
# (§14) Day 3: Plate Reading for 3-Day Assay
# (§15) 11. Monitor under the microscope to make sure that the cells in control wells are healthy.
# (§16) 12. After three days incubation, add 50 μL CellTiter-Glo® Reagent to each well.
# (§17) 13. Mix contents for 2 minutes on an orbital shaker to facilitate cell lysis.
# (§18) 14. Allow the plate to incubate at room temperature for 10 minutes to stabilize the luminescent signal.
# (§19) 15. Note: Uneven luminescent signal within standard plates can be caused by temperature gradients, uneven seeding of cells or edge effects in multiwall plates.
# (§20) 16. Place a black BackSeal sticker to the bottom of each plate.
# (§21) 17. Record luminescence using an Envision Multi Label Reader.
# (§22) In order to calculate IC50, a dose-response curve was fitted using nonlinear regression model with a sigmoidal dose response. The formula of the surviving rate is shown below, and the IC50 was automatically produced by GraphPad Prism 5.0.
# (§23) The surviving rate […]=(LumTest compound−LumMedium control)/(LumNone treated-LumMedium control)×100%.
# (§24) LumNone treated-LumMedium control is set as 100% o and LumMedium control is set as […]. T0 value will be presented as percentage of LumNone treated.
# MIA PaCa-2 = assay: Tumor cell anti-proliferation assay (CTG assay), MIA PaCa-2; type: cell-based; conditions: MIA PaCa-2, 3-days incubation, CTG, read-out: IC50 MIA PaCa-2
# Experimental: as §1, §2, §3, §4, §5, §6, §7, §8, §9, §10, §11, §12, §13, §14, §15, §16, §17, §18, §19, §20, §21, §22, §23, §24
# A549 = assay: Tumor cell anti-proliferation assay (CTG assay), A549; type: cell-based; conditions: A549, 3-days incubation
# Experimental: as §1, §2, §3, §4, §5, §6, §7, §8, §9, §10, §11, §12, §13, §14, §15, §16, §17, §18, §19, §20, §21, §22, §23, §24
# KRAS G12C [3] = target: T1, KRAS G12C; assay: KRAS G12C nucleotide exchange assay (SOS1-mediated, mant-GDP fluorescence); type: biochemical; set-up: KRas(1-169) G12C protein; conditions: 15 min pre-incubation
# Experimental: Assay 1: KRAS G12C Nucleotide Exchange Assay
# 1×Loading buffer: 20 mM HEPES, pH 7.5, 50 mM NaCl, 0.5 mM MgCl2, 1 mM DTT, 5 mM EDTA
# 1×Equilibration buffer: 20 mM HEPES, pH 7.5, 150 mM NaCl, 1 mM MgCl2, 1 mM DTT
# 1×Assay buffer: 20 mM HEPES, pH 7.5, 150 mM NaCl, 1 mM MgCl2, 0.01% Tween-20, 1 mM DTT
# 2. Load Mant GDP to KRAS G12C:
# a. A mixed solution of 100 µL mant GDP and KRAS G12C was prepared with 1×loading buffer: 60 um KRAS G12C, 600 um […], incubated at room temperature for 60 minutes, and the reaction was carried out in dark conditions.
# b. Add 1 uL 1 m MgCl2 (final concentration 10 mm) to stop the reaction, mix the solution upside down in the centrifuge tube, centrifugate for 3-5 seconds, and incubate at room temperature for 30 minutes.
# c. At the same time of incubation for 30 minutes, balance nap-5 column with 10 ml ix equipment buffer until no liquid drops.
# d. Drop the mixed solution of 100 uL mant GDP and KRAS G12C into the center of nap-5 column. After the sample completely enters nap-5 column, add 400 µL 1× equipment buffer until no liquid drops.
# e. Add 500 ul 1× equipment buffer for elution and collect eluant.
# f. Determination of KRAS G12C mant GDP with Bradford protein quantitative Kit.
# 3. Nucleotide Exchange Experiment:
# a. Transfer 50 NL DMSO/compound to 384 well plate with echo550.
# b. 10 uL enzyme mix was added into 384 pore plate and incubated with DMSO/compound for 15 min.
# c. Initial reaction with 10 µL Sos1/GTP mix.
# d. Immediately after reaction, read ex360/em440 fluorescence value in kinetic mode with Nivo.
# a. Use Graphpad software to process data and draw pictures.
# b. K value is obtained in Graphpad software by fitting One phase experimental deck model.
# c. Z′=1-3*(SdKmax+SdKmin)/(AveKmax−AveKmin)
# d. In % is calculated by the following formula:
# Inh%=(Kmax−Ksample)/(Kmax−Kmin)*100
# Target sequence in this assay (P01116 1-169 isoform P01116-2 G12C): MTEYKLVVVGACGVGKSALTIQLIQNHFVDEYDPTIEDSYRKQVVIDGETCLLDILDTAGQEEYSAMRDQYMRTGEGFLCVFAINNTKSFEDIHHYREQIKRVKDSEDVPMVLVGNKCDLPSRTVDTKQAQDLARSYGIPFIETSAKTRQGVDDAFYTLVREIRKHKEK
# [4] = mouse, 1 mg/kg, IV, 1 mpk, plasma
# [5] = mouse, 10 mg/kg, PO, 10 mpk, fasted, plasma
structure (smiles),measurement,setting,value
"C=CC(=O)N1C[C@H](C)N(c2nc(OC[C@@H]3CCCN3C)nc3c(=O)n(-c4cccc5cccc(Cl)c45)c(C(F)(F)F)nc23)[C@@H](C)C1 (single isomer, unassigned) [Example 29-b]",IC50,KRAS G12C [1],127 nM
same,F,[2]; PO 10 mpk vs IV 1 mpk,26.74%
same,AUC,[2]; [4],0.993 µM·h
same,C0,[2]; [4],659 nM
same,Vd,[2]; [4],2.97 L/kg
same,clearance,[2]; [4],25.7 mL/min/kg
same,half-life,[2]; [4],1.59 h
same,AUC,[2]; [5],2.58 µM·h
same,Cmax,[2]; [5],729 nM
same,Tmax,[2]; [5],0.42 h
same,half-life,[2]; [5],2.39 h
same,IC50,NCI-H358,28.6 nM
same,IC50,"MIA PaCa-2; Homo sapiens, MIA PaCa-2, 72 h",906 nM
same,IC50,"A549; Homo sapiens, 72 h",> 10000 nM
"C=CC(=O)N1C[C@H](C)N(c2nc(OC[C@@H]3CCCN3C)nc3c(=O)n(-c4cccc5cccc(F)c45)c(C(F)(F)F)nc23)[C@@H](C)C1 (single isomer, unassigned) [Example 34-a]",IC50,NCI-H358,202 nM
same,IC50,"MIA PaCa-2; Homo sapiens, MIA PaCa-2, 72 h",1230 nM
same,IC50,"A549; Homo sapiens, 72 h",> 10000 nM
"C=CC(=O)N1C[C@H](C)N(c2nc(OC[C@@H]3CCCN3C)nc3c(=O)n(-c4cccc5cccc(F)c45)c(C(F)(F)F)nc23)[C@@H](C)C1 (single isomer, unassigned) [Example 34-b]",IC50,NCI-H358,82 nM
same,IC50,MIA PaCa-2,679 nM
same,IC50,A549,> 10000 nM
"C=CC(=O)N1C[C@H](C)N(c2nc(OC[C@@H]3CCCN3C)nc3c(=O)n(-c4cc(OC)cc5ccccc45)c(C(F)(F)F)nc23)[C@@H](C)C1 (single isomer, unassigned) [Example 35-a]",IC50,NCI-H358,1180 nM
same,IC50,MIA PaCa-2,2650 nM
same,IC50,"A549; Homo sapiens, 72 h",> 10000 nM
"C=CC(=O)N1C[C@H](C)N(c2nc(OC[C@@H]3CCCN3C)nc3c(=O)n(-c4cc(OC)cc5ccccc45)c(C(F)(F)F)nc23)[C@@H](C)C1 (single isomer, unassigned) [Example 35-b]",IC50,NCI-H358,206 nM
same,IC50,MIA PaCa-2,916 nM
same,IC50,A549,> 10000 nM
"N.N.[Cl][Pt][Cl] [Cisplatin, reference compound]",IC50,NCI-H358,25000 nM
same,IC50,MIA PaCa-2,14300 nM
same,IC50,A549,31100 nM
"Cc1nc2c(N3CCN[C@@H](CC#N)C3)nc(OC[C@@H]3CCCN3C)nc2c(=O)n1-c1cccc2ccccc12 [Compound 2, 2-((S)-4-(6-methyl-2-(((S)-1-methylpyrrolidin-2-yl)methoxy)-7-(naphthalen-1-yl)-8-oxo-7,8-dihydropyrimido[5,4-d]pyrimidin-4-yl)piperazin-2-yl)acetonitrile]",IC50,"NCI-H358; Homo sapiens, NCI-H358, 72 h",1340 nM
same,IC50,"MIA PaCa-2; Homo sapiens, MIA PaCa-2, 72 h",642 nM
same,IC50,"A549; Homo sapiens, 72 h",> 5000 nM
same,IC50,KRAS G12C [3],690 nM
"C=CC(=O)N1CCN(c2nc(OC[C@@H]3CCCN3C)nc3c(=O)n(-c4cccc5cccc(Cl)c45)c(C)nc23)C[C@@H]1CC#N [Compound 4, 2-((S)-1-acryloyl-4-(7-(8-chloronaphthalen-1-yl)-6-methyl-2-(((S)-1-methylpyrrolidin-2-yl)methoxy)-8-oxo-7,8-dihydropyrimido[5,4-d]pyrimidin-4-yl)piperazin-2-yl)acetonitrile]",IC50,"NCI-H358; Homo sapiens, NCI-H358, 72 h",476 nM
same,IC50,"MIA PaCa-2; Homo sapiens, MIA PaCa-2, 72 h",504 nM
same,IC50,"A549; Homo sapiens, 72 h",> 5000 nM
same,IC50,KRAS G12C [3],560 nM
"C=CC(=O)N1CCN(c2nc(OC[C@@H]3CCCN3C)nc3c(=O)n(-c4cccc5cccc(Cl)c45)c(=O)[nH]c23)C[C@@H]1CC#N [Compound 19, 2-((S)-1-acryloyl-4-(7-(8-chloronaphthalen-1-yl)-2-(((S)-1-methylpyrrolidin-2-yl)methoxy)-6,8-dioxo-5,6,7,8-tetrahydropyrimido[5,4-d]pyrimidin-4-yl)piperazin-2-yl)acetonitrile]",IC50,"NCI-H358; Homo sapiens, NCI-H358, 72 h",> 5000 nM
same,IC50,"MIA PaCa-2; Homo sapiens, MIA PaCa-2, 72 h",> 5000 nM
same,IC50,"A549; Homo sapiens, 72 h",> 5000 nM
same,IC50,KRAS G12C [3],370 nM
"C=CC(=O)N1CCN(c2nc(OC[C@@H]3CCCN3C)nc3c(=O)n(-c4cccc5cccc(Cl)c45)c(C(F)(F)F)nc23)C[C@@H]1CC#N [Example 31, 2-((S)-1-acryloyl-4-(7-(8-chloronaphthalen-1-yl)-2-(((S)-1-methylpyrrolidin-2-yl)methoxy)-8-oxo-6-(trifluoromethyl)-7,8-dihydropyrimido[5,4-d]pyrimidin-4-yl)piperazin-2-yl)acetonitrile]",IC50,KRAS G12C [1],116 nM
same,IC50,"MIA PaCa-2; Homo sapiens, MIA PaCa-2, 72 h",124 nM
same,IC50,"A549; Homo sapiens, 72 h",> 10000 nM
same,IC50,KRAS G12C [3],446 nM
